{
  "source": "patent US9687477B2",
  "about": "(priority 2011, dated 2017)",
  "key": {"influenza virus [1]": {"tested_on": "influenza virus", "conditions": "cited from earlier work"}, "influenza virus [2]": {"tested_on": "influenza virus", "test": "Viral NP in influenza virus-infected HEK-cells treated with sphingolipids (Western blot)", "assay_type": "cell-based, Influenza A/WSN/33 virus (H1N1)", "conditions": "1 MOI, 1 μM, 2 dpi", "procedure": "FIG. 6 (Panels A-D) set forth data illustrating the enhanced susceptibility of SK1-cells to influenza virus infection. (A) HEK-cells (open triangle) or SK1-cells (filled square) were infected with influenza virus at 0.1 MOI. At 12, 18 or 48 hpi, virus titers were determined by plaque assay. n=3 separate virus-infected cells per group at each time point; Mean±SEM. (B) Western blot analysis was conducted at 2 dpi to detect viral NP and actin. (C) Cell lysates were used for Western blot analysis to detect STAT1, pSTAT1 and actin. (D) HEK-cells were infected with influenza virus at 1 MOI and treated with solvent controls, FTY720 (1 μM), D-erythro-sphingosine (1 μM) or S1P (1 μM). At 2 dpi, total proteins were extracted to detect viral NP and actin by Western blot analysis.\n(§1) Specific antibodies against actin, influenza viral protein NP, NS1, NS2, M1, M2, Bax, Bcl-2, PARP, STAT1, pSTAT1, STAT2, pSTAT2, ERK, pERK, p38, p-p38, Akt, pAkt, JNK, pJNK, RanBP3, pRanBP3, p-p90RSK, and FLAG for SPL and SK1 were purchased from Cell Signaling Technology, Abcam, Upstate, or Santa Cruz Biotechnology. Total proteins were extracted by a RIPA buffer supplemented with inhibitors blocking proteases and phosphatases, and then normalized by using a Bradford assay. The protein samples (20 μg each) were run on a 12% SDS-PAGE gel and transferred to a PROTRAN-NC (Whatman). Membrane-bound antibodies were detected by enhanced chemiluminescence (Pierce). All of the presented data were repeated with independent experimental settings, at least twice.\nFTY720, D-erythro-sphingosine, and S1P were purchased from Cayman Chemicals. HEK-cells were infected with influenza virus and simultaneously treated with FTY720 (1 μM), D-erythro-sphingosine (1 μM), or its solvent (1% DMSO). Similarly, virus-infected cells were treated with S1P (1 μM) or its solvent (3 mM NaOH). These experiments were repeated two more times, with similar results."}, "RanBP3": {"tested_on": "RanBP3", "test": "Influenza virus-induced phosphorylation of RanBP3 in MDCK cells (Western blot)", "assay_type": "cell-based, canine", "conditions": "5 MOI, 5 μM", "procedure": "FIG. 11 (Panels A-E) set forth data illustrating critical role of RanBP3 in influenza virus replication and RanBP3 regulation by SK inhibitor. (A-B) MDCK cells were infected with influenza virus at 5 MOI and treated with VEH or DMS (5 μM). Cell lysates were obtained at the indicated time points and the expression of pRanBP3 was assessed by Western blot analysis. Relative expression of pRanBP3 is shown in panel B. (C-E) HEK293 cells were transfected with control siRNA (siCTR) or siRNA targeting RanBP3 (siRanBP3). Western blotting was performed to detect RanBP3 and pRanBP3 (C). Cells were transfected with siRNA and then infected with influenza virus at 0.001 MOI. Virus titers were determined by using a plaque assay (D). Cells were transfected with siRNA and then infected with influenza virus at 1 MOI for 12 hrs. Immunocytochemistry followed by confocal microscopic analysis was performed to detect influenza viral NP (E).\n(§2) Specific antibodies against actin, influenza viral protein NP, NS1, NS2, M1, M2, Bax, Bcl-2, PARP, STAT1, pSTAT1, STAT2, pSTAT2, ERK, pERK, p38, p-p38, Akt, pAkt, JNK, pJNK, RanBP3, pRanBP3, p-p90RSK, and FLAG for SPL and SK1 were purchased from Cell Signaling Technology, Abcam, Upstate, or Santa Cruz Biotechnology. […] Membrane-bound antibodies were detected by enhanced chemiluminescence (Pierce). […]"}, "influenza virus [3]": {"tested_on": "influenza virus", "test": "Survival and weight loss of influenza virus-infected mice treated with SK inhibitor", "assay_type": "in vivo, C57BL/6 mice", "procedure": "FIG. 8 (Panels A-B) set forth data illustrating reduced mortality of influenza virus-infected mice by SK inhibitor treatment. (A) Wild-type C57BL/6 mice (n=5/group) were infected in vivo with influenza virus at 10^5 plaque forming unit (PFU) intra-nasally (i.n.) and injected with vehicle (control, CTR) or DMS {0.1 mg/kg (mpk)} and their lifespan was monitored. (B) Mice were infected with 5×10^4 PFU of influenza virus and then treated with vehicle (control, CTR), DMS (0.003 mpk) or SKI-II (0.012 mpk) via intranasal inoculation. Survival of the infected mice was monitored daily for 14 days.\nRefer to FIGS. 8A and 8B. Wild-type C57BL/6 mice (n=5/group) were infected in vivo with influenza virus at 10^5 PFU intra-nasally (i.n.) and injected with vehicle (CTR) or DMS {0.1 mg/kg (mpk)} and their lifespan was monitored."}, "ERK signaling pathway": {"tested_on": "ERK signaling pathway", "test": "Influenza virus-induced activation of ERK MAP kinase signal in MDCK cells (Western blot)", "assay_type": "cell-based, canine", "conditions": "3 MOI, 5 μM", "procedure": "FIG. 12 (Panels A-C) set forth data illustrating reduced activation of ERK MAP kinase signal by SK inhibitor treatment upon influenza virus infection. (A). MDCK cells were treated with VEH or DMS (5 μM) and infected with influenza virus at 3 MOI. Cell lysates were obtained at the indicated time points and the expression of ERK MAP kinase signaling components were assessed by Western blot analysis. Relative expression of pERK and p90RSK is shown in panels B and C respectively (dotted line, VEH treated; solid line, DMS treated).\nas §1"}, "[4]": {"tested_on": "Influenza A/WSN/33 virus (H1N1)", "test": "microbe, parasite or virus in culture", "assay_type": "cell-based", "conditions": "read-out: EC50 (50% efficacy concentration that blocks virus production)"}, "[5]": {"tested_on": "Measles virus (Edmonston strain)", "assay_type": "cell-based"}, "influenza virus [6]": {"tested_on": "influenza virus", "test": "JAK inhibitor / STAT1 inhibitor assay: viral NP in infected HEK- and SPL-cells", "assay_type": "cell-based, Influenza A/WSN/33 virus (H1N1)", "conditions": "1 MOI, treated at 2 hpi, 10 μM, after 2 days", "source_text": "FIG. 4 (Panels A-E) set forth data illustrating the analyses for the activation of JAK/STAT following influenza virus infection of SPL-cells. HEK-cells or SPL-cells were uninfected or infected with influenza virus at 1 MOI. (A) At 1 dpi, cell lysates were used for Western blot analysis to detect STAT1, pSTAT1, STAT2, pSTAT2 and actin. (B) At 0, 12 or 18 hpi, whole proteins were extracted and then used for Western blot analysis to detect STAT1, pSTAT1 and actin. (C) HEK- or SPL-cells were pre-treated with fludarabine (1 μM) blocking STAT1 expression, and at 2 dpi, the expression of viral NP and actin was analyzed. (D) HEK-cells (filled bars) and SPL-cells (open bars) were uninfected (CTR) or infected with influenza virus at 1 MOI (left panel) or 10 MOI (right panel). Reverse transcription followed by quantitative real-time PCR was performed to detect the relative mRNA level of IFN-β. […] After 2 days, the level of viral NP and actin was assessed by Western blot analysis.\nas §2"}},
  "note": "Where two headings read alike, the source gives them in different places.",
  "data": [
    {"molecule": "CCCCCCCOc1ccc(CC[C@@](C)(N)CO)cc1", "note": "[AAL-R]", "values": [
      {"measurement": "propagation of influenza virus", "setting": "influenza virus [1]; reference 18", "result": "did not significantly alter the propagation of influenza virus"},
      {"measurement": "influenza virus-induced immune pathology", "setting": "influenza virus [1]; references 17, 18", "result": "alleviate influenza virus-induced immune pathology"}
    ]},
    {"molecule": "CCCCCCCCCCCCC/C=C/[C@@H](O)[C@@H](N)CO", "note": "[D-erythro-sphingosine]", "values": [
      {"measurement": "synthesis of influenza viral NP", "setting": "influenza virus [2]", "result": "failed to enhance the synthesis of influenza viral NP"}
    ]},
    {"molecule": "CCCCCCCCCCCCC/C=C/[C@@H](O)[C@H](CO)N(C)C", "note": "[DMS, D-erythro-N,N-dimethylsphingosine]", "values": [
      {"measurement": "influenza virus-induced phosphorylation of RanBP3", "setting": "RanBP3", "result": "blocked influenza virus-induced phosphorylation of RanBP3"},
      {"measurement": "weight lost by treated infected mice", "setting": "influenza virus [3]; 10^5 PFU i.n., single dose 0.1 mpk, at 9-10 dpi", "result": "~20", "unit": "%"},
      {"measurement": "mortality rate of the infected mice", "setting": "influenza virus [3]; mouse, in vivo, 0.012 mg/kg", "result": "decreased the mortality rate of the infected mice"},
      {"measurement": "protection from influenza virus-induced death (lifespan)", "setting": "influenza virus [3]; mouse, in vivo, 0.1 mg/kg", "result": "effectively protected them from influenza virus-induced death"},
      {"measurement": "weight loss of the infected mice (morbidity experiment)", "setting": "influenza virus [3]; n=5/group, −15% in CTR", "result": "−7", "unit": "%"},
      {"measurement": "influenza virus-induced activation (phosphorylation) of ERK", "setting": "ERK signaling pathway", "result": "suppress influenza virus-induced activation"},
      {"measurement": "influenza virus-induced activation (phosphorylation) of p90RSK", "setting": "ERK signaling pathway", "result": "suppress influenza virus-induced activation"},
      {"measurement": "EC50", "setting": "[4]", "result": 4.1, "unit": "µM"}
    ]},
    {"molecule": "CCCCCCCCc1ccc(CCC(N)(CO)CO)cc1", "note": "[FTY720]", "values": [
      {"measurement": "synthesis of influenza viral NP", "setting": "influenza virus [2]", "result": "failed to enhance the synthesis of influenza viral NP"}
    ]},
    {"molecule": "CCCCCCCCCCCCC/C=C/[C@@H](O)[C@@H](N)COP(=O)(O)O", "note": "[S1P, sphingosine-1-phosphate]", "values": [
      {"measurement": "synthesis of influenza viral NP", "setting": "influenza virus [2]", "result": "failed to enhance the synthesis of influenza viral NP"}
    ]},
    {"molecule": "Oc1ccc(Nc2nc(-c3ccc(Cl)cc3)cs2)cc1", "note": "[SKI-II, 4-[4-(4-Chloro-phenyl)-thiazol-2-ylamino]-phenol]", "values": [
      {"measurement": "expression of measles viral proteins", "setting": "[5]", "result": "inhibited"},
      {"measurement": "production of measles virus (viral titers, plaque assay)", "setting": "[5]", "result": "interfered with the production of measles virus"},
      {"measurement": "viability of mice infected with influenza virus", "setting": "influenza virus [3]; single dose 0.012 mpk, 5×10^4 PFU, intranasal, 14 days", "result": "increased viability of mice infected with influenza virus"},
      {"measurement": "EC50", "setting": "[4]; Influenza A virus, MDCK", "result": 2.5, "unit": "µM"}
    ]},
    {"molecule": "JAK inhibitor I", "values": [
      {"measurement": "NP expression in HEK-cells", "setting": "influenza virus [6]; HEK-cells", "result": "only a little increase of NP expression"},
      {"measurement": "expression level of viral NP in SPL-cells", "setting": "influenza virus [6]; SPL-cells", "result": "strongly elevated the expression level of viral NP"}
    ]}
  ]
}
